This note sets out measurements from paper PMC3573112, “Compatibility in the Ustilago maydis–Maize Interaction Requires Inhibition of Host Cysteine Proteases by the Fungal Effector Pit2” (PLoS Pathogens, 2013).

Where a SMILES comes first, the peptide text is derived from it. The star is where a group is joined. AMC = Cc1cc(=O)oc2cc(N*)ccc12; Cbz = O=C(OCc1ccccc1)*

One experiment addresses T1, CP2 (Zea mays, UniProt Q43705).
T1 construct: gene see1; transiently expressed in Nicotiana benthamiana (pGreenII 0029); apoplastic fluid, not purified
T1 sequence (Q43705 143-360): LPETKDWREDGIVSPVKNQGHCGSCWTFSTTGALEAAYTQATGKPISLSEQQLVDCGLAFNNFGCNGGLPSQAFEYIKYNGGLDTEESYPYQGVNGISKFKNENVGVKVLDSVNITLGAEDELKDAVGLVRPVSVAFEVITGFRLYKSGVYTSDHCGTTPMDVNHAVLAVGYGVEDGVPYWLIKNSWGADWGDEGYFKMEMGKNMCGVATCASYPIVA
The experiment can be described thus: fluorimetric protease assay (AMC release), apoplastic fluid. Type of experiment: biochemical. The settings on record: 2 µM substrate; pH 6.0, room temperature; DTT.

In another experiment the target is T2, CathepsinBIII (CatB) (Zea mays, UniProt B6TLR9).
T2 construct: transiently expressed in Nicotiana benthamiana (pGreenII 0029); apoplastic fluid, not purified
T2 sequence (B6TLR9 93-347): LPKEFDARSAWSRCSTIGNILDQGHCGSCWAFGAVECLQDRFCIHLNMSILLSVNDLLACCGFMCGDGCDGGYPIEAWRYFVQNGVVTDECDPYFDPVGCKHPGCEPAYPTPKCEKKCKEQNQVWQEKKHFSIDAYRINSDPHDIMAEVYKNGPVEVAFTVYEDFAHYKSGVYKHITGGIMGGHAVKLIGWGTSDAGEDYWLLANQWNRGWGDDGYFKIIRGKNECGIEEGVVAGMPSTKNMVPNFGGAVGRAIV
Described as above. It counts as biochemical. As to conditions: 2 µM substrate; pH 6.0, room temperature; DTT.

For the next experiment, the target named is T3, XCP2 (Zea mays, UniProt B6TIC7).
T3 construct: transiently expressed in Nicotiana benthamiana (pGreenII 0029); apoplastic fluid, not purified
T3 sequence (B6TIC7 158-377): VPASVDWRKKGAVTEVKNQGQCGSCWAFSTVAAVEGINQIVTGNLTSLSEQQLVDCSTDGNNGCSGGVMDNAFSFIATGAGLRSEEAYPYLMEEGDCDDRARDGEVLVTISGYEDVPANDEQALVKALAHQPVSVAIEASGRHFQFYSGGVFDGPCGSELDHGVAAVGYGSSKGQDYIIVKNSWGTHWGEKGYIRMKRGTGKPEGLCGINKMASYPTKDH
Described as above. It counts as biochemical. The settings on record: 2 µM substrate; pH 6.0, room temperature; DTT.

The next experiment addresses T4, CP1A (Zea mays, UniProt B6T669).
T4 construct: transiently expressed in Nicotiana benthamiana (pGreenII 0029); apoplastic fluid, not purified
Described as above. It counts as biochemical. As to conditions: 2 µM substrate; pH 6.0, room temperature; DTT.

The target of experiment [1] is T5, CP2 (corn cysteine protease 2) (Zea mays, UniProt Q43705).
T5 construct: gene see1
T5 sequence (Q43705 143-360 limits assumed): T1 sequence (Q43705 143-360)
The experiment is described as follows: fluorimetric protease assay (AMC release, […] nm). Type of experiment: biochemical. As to conditions: 1 µM substrate; pH 6.0.

Experiment [2] addresses CP2 (corn cysteine protease 2) without signal peptide and prodomain, Gal4 activation domain fusion (pGADT7-CP2) (maize) (UniProt Q10717).
In experiment [3] the target is T5, CP2 (corn cysteine protease 2). The experiment is described as follows: fluorimetric protease assay with Z-Phe-Arg-AMC. The settings on record: 10 min preincubation; 1 µM Z-Phe-Arg-AMC; pH 6.0; covalent. Type of experiment: biochemical.

T4 sequence (B6T669 130-463): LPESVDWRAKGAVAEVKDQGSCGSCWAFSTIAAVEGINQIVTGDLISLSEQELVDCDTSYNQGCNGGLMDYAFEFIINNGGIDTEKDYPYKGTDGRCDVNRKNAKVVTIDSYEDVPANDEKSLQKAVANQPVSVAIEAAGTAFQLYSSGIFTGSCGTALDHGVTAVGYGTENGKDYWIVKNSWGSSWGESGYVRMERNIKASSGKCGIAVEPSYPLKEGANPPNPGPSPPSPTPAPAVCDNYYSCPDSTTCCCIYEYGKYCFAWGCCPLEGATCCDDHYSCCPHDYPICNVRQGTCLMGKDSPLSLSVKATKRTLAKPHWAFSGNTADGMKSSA

Take `Cc1cc(=O)oc2cc(NC(=O)[C@H](CCCNC(=N)N)NC(=O)[C@H](Cc3ccccc3)NC(=O)OCc3ccccc3)ccc12` [Z-Phe-Arg-7-amido-4-methylcoumarin] (Cbz-Phe-Arg-{AMC}): the “fluorimetric protease assay (AMC release), apoplastic fluid” value on CP2, at CathepsinBIII (CatB), on XCP2 and on CP1A was “Protease activity was determined using substrate Z-Phe-Arg-AMC” in each case. Further, the “fluorimetric protease assay (AMC release, 460 nm)” value in experiment [1] was “Protease-activity was determined using the fluorescent substrate Z-Phe-Arg-AMC”.

On to “GST-Pit2 (Pit2 without signal peptide with N-terminal GST-tag, pRSET-GST-PP-Pit2) (natural protein)”, for which the inhibition of the activity on Z-Phe-Arg-AMC of recombinant His-tagged CP2 (E. coli, refolded, activated by pH shift and pepsin) by 10 µM recombinant Pit2 (GST tag removed) in experiment [2] is 85 % inhibition.

Take `CC(C)C[C@H](NC(=O)[C@H]1O[C@@H]1C(=O)O)C(=O)NCCCCN=C(N)N` [E-64]: in experiment [3], the “inhibition at 2.5 μM” value is listed as “inhibited by addition of the specific small molecule cysteine protease inhibitor E-64”.
